# Measurements taken from patent publication US20250042895A1, “INHIBITORS OF ULK1 AND METHODS OF USE” (H. LEE MOFFITT CANCER CENTER AND RESEARCH INSTITUTE, INC., priority 2021, published 2025).
# Tests used:
# ULK1 kinase domain = target: T1, ULK1 kinase domain (Homo sapiens, UniProt O75385); experiment: Differential scanning fluorimetry (thermal shift); assay type: binding; conditions: 2 μM ULK1 kinase domain, 50 μM compound, vs DMSO reference
# T1 construct: The protein expression construct of ULK1 kinase domain (1-283) was cloned; 6His-Sumo (N, cleaved yes); made in house; host or cells: E. coli BL21 star, co-expressed with lambda phosphatase
# T1 sequence (O75385 1-283): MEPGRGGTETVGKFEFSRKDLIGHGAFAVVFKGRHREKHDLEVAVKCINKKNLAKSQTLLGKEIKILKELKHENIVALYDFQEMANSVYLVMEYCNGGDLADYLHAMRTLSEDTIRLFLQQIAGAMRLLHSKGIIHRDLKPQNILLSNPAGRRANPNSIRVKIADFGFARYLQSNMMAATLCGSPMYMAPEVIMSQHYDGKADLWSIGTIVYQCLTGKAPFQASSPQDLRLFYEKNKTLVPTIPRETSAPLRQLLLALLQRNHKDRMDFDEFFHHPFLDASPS
# ULK1 kinase = target: T2, ULK1 kinase (Homo sapiens, UniProt O75385); experiment: Radiometric HotSpot kinase assay (Reaction Biology); assay type: biochemical; conditions: activity-based ULK1 kinase assay
# T2 construct: purchased Reaction Biology
# T2 sequence (O75385 1-1050): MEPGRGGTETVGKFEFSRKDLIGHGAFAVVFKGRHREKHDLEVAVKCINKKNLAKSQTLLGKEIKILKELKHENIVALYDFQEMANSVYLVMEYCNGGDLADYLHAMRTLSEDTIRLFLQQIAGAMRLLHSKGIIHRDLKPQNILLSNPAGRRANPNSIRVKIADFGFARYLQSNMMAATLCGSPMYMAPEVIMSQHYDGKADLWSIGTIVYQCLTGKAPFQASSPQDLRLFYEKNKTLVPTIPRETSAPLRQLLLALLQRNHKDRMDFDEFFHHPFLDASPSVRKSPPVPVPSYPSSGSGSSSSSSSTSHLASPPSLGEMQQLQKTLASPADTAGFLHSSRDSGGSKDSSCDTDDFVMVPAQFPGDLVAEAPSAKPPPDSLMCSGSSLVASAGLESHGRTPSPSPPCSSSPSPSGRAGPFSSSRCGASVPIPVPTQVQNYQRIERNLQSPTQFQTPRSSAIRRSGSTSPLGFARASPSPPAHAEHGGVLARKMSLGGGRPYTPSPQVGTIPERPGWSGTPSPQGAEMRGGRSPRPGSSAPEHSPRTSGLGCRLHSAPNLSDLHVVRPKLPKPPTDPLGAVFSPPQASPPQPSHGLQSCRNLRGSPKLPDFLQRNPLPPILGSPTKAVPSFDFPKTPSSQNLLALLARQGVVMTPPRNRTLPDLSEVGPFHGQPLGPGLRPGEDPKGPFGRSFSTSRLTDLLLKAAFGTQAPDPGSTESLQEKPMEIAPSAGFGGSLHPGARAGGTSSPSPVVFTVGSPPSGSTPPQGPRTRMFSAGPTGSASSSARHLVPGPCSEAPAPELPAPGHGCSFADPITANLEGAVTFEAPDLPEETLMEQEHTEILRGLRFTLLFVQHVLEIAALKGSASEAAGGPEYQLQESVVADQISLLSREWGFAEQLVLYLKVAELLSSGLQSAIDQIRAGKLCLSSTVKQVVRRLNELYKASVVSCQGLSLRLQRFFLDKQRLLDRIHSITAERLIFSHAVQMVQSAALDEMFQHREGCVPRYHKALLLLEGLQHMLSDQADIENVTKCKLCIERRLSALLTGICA
# GST-ULK1 = target: T3, GST-ULK1 (Homo sapiens, UniProt O75385); experiment: LanthaScreen ULK1 inhibitor assay; assay type: biochemical; conditions: 5 nM GST-ULK1, 30 nM tracer, 20 μM ATP, 1 hr room temperature
# T3 sequence (O75385 1-1050): T2 sequence (O75385 1-1050)
IC50 (GST-ULK1),Compound,ΔTm at 50 µM (ULK1 kinase domain),IC50 (ULK1 kinase)
–,"CS(=O)(=O)NC1CCN(C(=O)c2cc(-c3cnc4[nH]c(-c5ccc(F)cc5)cc4c3)cs2)C1 (stereo not shown) [Compound 9, N-(1-(4-(2-(4-Fluorophenyl)-1H-pyrrolo[2,3-b]pyridin-5-yl)thiophene-2-carbonyl)pyrrolidin-3-yl)methanesulfonamide]",1.29 °C,–
85 nM,FC(F)(F)c1cnc2[nH]c(C3=CCNC3)cc2c1NCCN1CCOCC1 [Compound 117],–,–
–,"CN1CCC(c2cc3c(NCCCN4CCCC4)c(C(F)(F)F)cnc3[nH]2)CC1 [Compound 94, 2-(1-methylpiperidin-4-yl)-N-(3-(pyrrolidin-1-yl)propyl)-5-(trifluoromethyl)-1H-pyrrolo[2,3-b]pyridin-4-amine]",0.76 °C,–
1210 nM,FC(F)(F)c1cnc2[nH]c(C3=CCNC3)cc2c1NCCCN1CCCC1 [Compound 120],–,–
–,"FC1(F)CN(c2c(C(F)(F)F)cnc3[nH]c(C4CCOCC4)cc23)C1 [Compound 85, 4-(3,3-difluoroazetidin-1-yl)-2-(tetrahydro-2H-pyran-4-yl)-5-(trifluoromethyl)-1H-pyrrolo[2,3-b]pyridine]",0.54 °C,–
884 nM,FC1(F)CN(c2c(C(F)(F)F)cnc3[nH]c(C4=CCCNC4)cc23)C1 [Compound 141],–,–
–,"O=C(c1nc(-c2cnc3[nH]c(-c4ccc(F)cc4)cc3c2)cs1)N1CC(F)(F)C1 [Compound 75, (3,3-difluoroazetidin-1-yl)(4-(2-(4-fluorophenyl)-1H-pyrrolo[2,3-b]-pyridin-5-yl)thiazol-2-yl)-methanone]",3 °C,–
–,"CC(C)(C)OC(=O)N1CCC(c2cc3cc(-c4csc(C(=O)NCC(F)(F)F)c4)cnc3[nH]2)CC1 [Compound 40, tert-Butyl 4-(5-(5-((2,2,2-trifluoroethyl)carbamoyl)thiophen-3-yl)-1H-pyrrolo[2,3-b]-pyridin-2-yl)piperidine-1-carboxylate]",1.63 °C,–
8 nM,FC(F)(F)c1cnc2[nH]c(C3=CCCNC3)cc2c1NCCN1CCNCC1 [Compound 112],–,–
126 nM,FC(F)(F)c1cnc2[nH]c(C3=CCNCC3)cc2c1NCCN1CCOCC1 [Compound 118],–,–
80 nM,O=C(NCC1(O)CC1)c1cc(-c2cnc3[nH]c(C4=CCNC4)cc3c2)cs1 [Compound 109],–,–
63 nM,FC(F)(F)c1cnc2[nH]c(C3=CCNC3)cc2c1NCCN1CCNCC1 [Compound 113],–,–
–,"CN1CCC(c2cc3c(N4CC(F)(F)C4)c(C(F)(F)F)cnc3[nH]2)CC1 [Compound 96, 4-(3,3-difluoroazetidin-1-yl)-2-(1-methylpiperidin-4-yl)-5-(trifluoromethyl)-1H-pyrrolo[2,3-b]pyridine]",3.09 °C,–
–,"O=C(c1cc(-c2cnc3[nH]c(-c4ccc(F)cc4)cc3c2)cs1)N1CCC(NC(=O)C(F)(F)F)C1 (stereo not shown) [Compound 24, 2,2,2-Frifluoro-N-(1-(4-(2-(4-fluorophenyl)-1H-pyrrolo[2,3-b]pyridin-5-yl)thiophene-2-carbonyl)pyrrolidin-3-yl)acetamide]",0.4 °C,–
81 nM,FC1(F)CN(c2c(C(F)(F)F)cnc3[nH]c(C4=CCNCC4)cc23)C1 [Compound 115],–,–
201 nM,FC(F)(F)c1cnc2[nH]c(C3=CCCNC3)cc2c1NCCN1CCOCC1 [Compound 116],–,–
–,"CC(C)(C)OC(=O)N1CCCC(c2cc3cc(-c4csc(C(=O)NCC(F)(F)F)c4)cnc3[nH]2)C1 (stereo not shown) [Compound 43, tert-Butyl 3-(5-(5-((2,2,2-trifluoroethyl)carbamoyl)thiophen-3-yl)-1H-pyrrolo[2,3-b]-pyridin-2-yl)piperidine-1-carboxylate]",4.2 °C,–
–,"FC1(F)CCN(c2c(C(F)(F)F)cnc3[nH]c(C4CCOCC4)cc23)CC1 [Compound 92, 4-(4,4-difluoropiperidin-1-yl)-2-(tetrahydro-2H-pyran-4-yl)-5-(trifluoromethyl)-1H-pyrrolo[2,3-b]pyridine]",0.88 °C,–
1600 nM,FC(F)(F)c1cnc2[nH]c(C3=CCCNC3)cc2c1NCCCN1CCCC1 [Compound 119],–,–
14 nM,FC(F)(F)c1cnc2[nH]c(C3=CCNCC3)cc2c1NCCN1CCNCC1 [Compound 114],–,–
320 nM,FC(F)(F)c1cnc2[nH]c(C3=CCNCC3)cc2c1NCCCN1CCCC1 [Compound 121],–,–
88 nM,O=C(NCC(F)(F)F)c1cc(-c2cnc3[nH]c(C4=CCN(C5CCC(C(=O)O)CC5)CC4)cc3c2)cs1 (stereo not shown) [compound 142],–,–

Compound,IC50 (GST-ULK1),ΔTm at 50 µM (ULK1 kinase domain),IC50 (ULK1 kinase)
"CC(C)(C)OC(=O)N1CCC=C(c2cc3cc(-c4csc(C(=O)NCC(F)(F)F)c4)cnc3[nH]2)C1 [Compound 41, tert-Butyl 5-(5-(5-((2,2,2-trifluoroethyl)carbamoyl)thiophen-3-yl)-1H-pyrrolo[2,3-b]-pyridin-2-yl)-3,6-dihydropyridine-1(2H)-carboxylate]",75 nM,9.89 °C,333 nM
"FC(F)(F)c1cnc2[nH]c(C3CCOCC3)cc2c1NCCN1CCOCC1 [Compound 88, N-(2-morpholinoethyl)-2-(tetrahydro-2H-pyran-4-yl)-5-(trifluoromethyl)-1H-pyrrolo-[2,3-b]pyridin-4-amine]",4520 nM,2.37 °C,4450 nM
"O=C(NC1CNC1)c1nc(-c2cnc3[nH]c(-c4ccc(F)cc4)cc3c2)cs1 [Compound 80, N-(azetidin-3-yl)-4-(2-(4-fluoro-phenyl)-1H-pyrrolo[2,3-b]pyridin-5-yl)thiazole-2-carboxamide]",966 nM,4.99 °C,502 nM
"O=C(c1nc(-c2cnc3[nH]c(-c4ccc(F)cc4)cc3c2)cs1)N1CC(F)C1 [Compound 74, (3-fluoroazetidin-1-yl)(4-(2-(4-fluorophenyl)-1H-pyrrolo[2,3-b]-pyridin-5-yl)thiazol-2-yl)methanone]",665 nM,1.87 °C,644 nM
"C[C@H](CO)NC(=O)c1nc(-c2cnc3[nH]c(-c4ccc(F)cc4)cc3c2)cs1 [Compound 77, (R)-4-(2-(4-fluorophenyl)-1H-pyrrolo[2,3-b]pyridin-5-yl)-N-(1-hydroxypropan-2-yl)thiazole-2-carboxamide]",741 nM,4.54 °C,348 nM
"CC[C@H](CO)NC(=O)c1nc(-c2cnc3[nH]c(-c4ccc(F)cc4)cc3c2)cs1 [Compound 62, (R)-4-(2-(4-Fluorophenyl)-1H-pyrrolo[2,3-b]pyridin-5-yl)-N-(1-hydroxybutan-2-yl)-thiazole-2-carboxamide]",182 nM,4.81 °C,78 nM
"Fc1ccc(-c2cc3c(NC4CCC4)c(C(F)(F)F)cnc3[nH]2)cc1 [Compound 82, N-cyclobutyl-2-(4-fluorophenyl)-5-(trifluoro-methyl)-1H-pyrrolo[2,3-b]pyridin-4-amine]",24 nM,4.39 °C,9 nM
"CC[C@@H](CO)NC(=O)c1cccc(-c2cnc3[nH]c(-c4ccc(F)cc4)cc3c2)c1 [Compound 54, (S)-3-(2-(4-Fluorophenyl)-1H-pyrrolo[2,3-b]pyridin-5-yl)-N-(1-hydroxybutan-2-yl)benzamide]",5850 nM,1.62 °C,1470 nM
"CC[C@H](CO)NC(=O)c1cccc(-c2cnc3[nH]c(-c4ccc(F)cc4)cc3c2)c1 [Compound 53, (R)-3-(2-(4-Fluorophenyl)-1H-pyrrolo[2,3-b]pyridin-5-yl)-N-(1-hydroxybutan-2-yl)benzamide]",94 nM,3.11 °C,66 nM
"FC(F)(F)c1cnc2[nH]c(C3CCOCC3)cc2c1NCCCN1CCCC1 [Compound 90, N-(3-(pyrrolidin-1-yl)propyl)-2-(tetrahydro-2H-pyran-4-yl)-5-(trifluoromethyl)-1H-pyrrolo[2,3-b]pyridin-4-amine]",145 nM,9.23 °C,155 nM
